Laboratory results from US12215099B2, “Quinolinone and benzoxazine derivatives as muscarinic M1 and/or M4 receptor agonists” (Nxera Pharma UK Limited, priority 2018, dated 2025).

Key:
Format in all cases: cell-based
[1] = molecular target: T1, human muscarinic M4 receptor (Homo sapiens, UniProt P08173); assay: Alphascreen Surefire phospho-ERK1/2 functional assay, M4; settings: for EC50: CHO cells stably expressing human M4, agonist 5 min, 37° C., read-out: pEC50 M4 (converted); for Emax: CHO, read-out: % Emax cf. ACh, M4
T1 construct: expressed in transfected cells
T1 sequence (P08173 1-479): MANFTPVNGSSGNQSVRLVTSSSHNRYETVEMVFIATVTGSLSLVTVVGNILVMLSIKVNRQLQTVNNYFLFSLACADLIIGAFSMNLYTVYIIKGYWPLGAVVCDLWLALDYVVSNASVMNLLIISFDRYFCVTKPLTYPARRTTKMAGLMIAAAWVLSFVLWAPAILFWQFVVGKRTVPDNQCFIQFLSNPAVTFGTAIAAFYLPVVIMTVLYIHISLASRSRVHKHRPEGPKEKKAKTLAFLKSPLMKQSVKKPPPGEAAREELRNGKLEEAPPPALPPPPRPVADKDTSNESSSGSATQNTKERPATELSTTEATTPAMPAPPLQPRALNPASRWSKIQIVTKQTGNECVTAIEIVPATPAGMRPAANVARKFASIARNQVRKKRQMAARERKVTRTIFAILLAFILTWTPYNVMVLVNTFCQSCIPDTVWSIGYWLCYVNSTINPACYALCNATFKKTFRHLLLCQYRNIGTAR
Experimental: (§1) ERK1/2 phosphorylation is a downstream consequence of both Gq/11 and Gi/o protein coupled receptor activation, making it highly suitable for the assessment of M1, M3 (Gq/11 coupled) and M2, M4 receptors (Gi/o coupled), rather than using different assay formats for different receptor subtypes. CHO cells stably expressing the human muscarinic M1, M2, M3 or M4 receptor were plated (25K/well) onto 96-well tissue culture plates in MEM-alpha+10% dialysed FBS. Once adhered, cells were serum-starved overnight. Agonist stimulation was performed by the addition of 5 μL agonist to the cells for 5 min (37° C.). Media was removed and 50 μL of lysis buffer added. After 15 min, a 4 μL sample was transferred to 384-well plate and 7 μL of detection mixture added. Plates were incubated for 2 h with gentle agitation in the dark and then read on a PHERAstar plate reader.
(§2) pEC50 and Emax figures were calculated from the resulting data for each receptor subtype.

[2] = molecular target: T2, human muscarinic M1 receptor (Homo sapiens, UniProt P11229); assay: Alphascreen Surefire phospho-ERK1/2 functional assay, M1; settings: for EC50: CHO cells stably expressing human M1, agonist 5 min, 37° C., read-out: pEC50 M1 (converted); for Emax: CHO, read-out: % Emax cf. ACh, M1
T2 sequence (P11229 1-460): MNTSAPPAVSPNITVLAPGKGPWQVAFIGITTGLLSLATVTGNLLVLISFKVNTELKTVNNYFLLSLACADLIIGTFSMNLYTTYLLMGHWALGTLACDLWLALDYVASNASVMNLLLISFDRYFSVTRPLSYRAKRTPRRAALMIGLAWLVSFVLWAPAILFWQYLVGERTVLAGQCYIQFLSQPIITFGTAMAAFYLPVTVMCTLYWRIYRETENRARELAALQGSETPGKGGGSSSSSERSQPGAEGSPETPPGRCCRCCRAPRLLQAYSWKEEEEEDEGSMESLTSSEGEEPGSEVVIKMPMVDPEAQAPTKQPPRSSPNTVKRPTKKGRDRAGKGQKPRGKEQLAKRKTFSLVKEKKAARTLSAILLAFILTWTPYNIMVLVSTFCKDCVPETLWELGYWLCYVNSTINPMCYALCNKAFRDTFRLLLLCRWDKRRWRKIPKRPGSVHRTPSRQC
Experimental: as §1, §2

[3] = molecular target: T3, human muscarinic M3 receptor (Homo sapiens, UniProt P20309); assay: Alphascreen Surefire phospho-ERK1/2 functional assay, M3; settings: for EC50: CHO cells stably expressing human M3, agonist 5 min, 37° C., read-out: pEC50 M3 (converted); for Emax: CHO, read-out: % Emax cf. ACh, M3
T3 construct: expressed in transfected cells
T3 sequence (P20309 whole entry): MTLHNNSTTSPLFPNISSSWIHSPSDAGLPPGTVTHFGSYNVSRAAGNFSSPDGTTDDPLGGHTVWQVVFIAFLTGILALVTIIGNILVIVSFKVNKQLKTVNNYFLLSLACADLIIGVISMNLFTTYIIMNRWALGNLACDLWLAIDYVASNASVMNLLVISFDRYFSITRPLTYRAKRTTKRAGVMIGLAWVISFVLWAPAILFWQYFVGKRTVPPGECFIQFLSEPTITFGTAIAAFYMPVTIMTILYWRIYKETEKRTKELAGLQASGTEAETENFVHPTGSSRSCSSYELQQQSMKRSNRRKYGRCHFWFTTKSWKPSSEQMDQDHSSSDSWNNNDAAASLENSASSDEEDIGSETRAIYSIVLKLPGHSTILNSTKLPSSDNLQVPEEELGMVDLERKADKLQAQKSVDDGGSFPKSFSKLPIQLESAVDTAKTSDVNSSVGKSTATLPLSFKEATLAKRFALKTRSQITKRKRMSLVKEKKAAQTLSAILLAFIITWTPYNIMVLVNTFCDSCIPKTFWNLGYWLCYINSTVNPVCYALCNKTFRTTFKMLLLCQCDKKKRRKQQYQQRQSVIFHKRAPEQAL
Experimental: as §1, §2

[4] = molecular target: T4, human muscarinic M2 receptor (Homo sapiens, UniProt P08172); assay: Alphascreen Surefire phospho-ERK1/2 functional assay, M2; settings: for EC50: CHO cells stably expressing human M2, agonist 5 min, 37° C., read-out: pEC50 M2 (converted); for Emax: CHO, read-out: % Emax cf. ACh, M2
T4 sequence (P08172 1-466): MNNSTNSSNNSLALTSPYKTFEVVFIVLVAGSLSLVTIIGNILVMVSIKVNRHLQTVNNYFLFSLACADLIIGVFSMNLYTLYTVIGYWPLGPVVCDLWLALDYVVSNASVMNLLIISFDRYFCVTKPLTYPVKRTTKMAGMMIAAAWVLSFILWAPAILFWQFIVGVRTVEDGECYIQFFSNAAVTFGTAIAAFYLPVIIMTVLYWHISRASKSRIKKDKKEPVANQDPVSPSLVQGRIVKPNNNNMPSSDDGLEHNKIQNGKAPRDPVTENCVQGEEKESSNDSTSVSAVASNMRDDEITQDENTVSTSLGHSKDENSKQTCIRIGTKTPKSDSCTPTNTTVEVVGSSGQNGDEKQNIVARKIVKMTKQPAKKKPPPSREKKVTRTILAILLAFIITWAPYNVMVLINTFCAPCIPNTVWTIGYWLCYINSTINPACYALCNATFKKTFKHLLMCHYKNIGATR
Experimental: as §1, §2

O=C1CCON1CCC1CCN(CCCN2C(=O)CCc3ccccc32)CC1 [Example 10, 2-(2-(1-(3-(2-oxo-3,4-dihydroquinolin-1(2H)-yl)propyl)piperidin-4-yl)ethyl)isoxazolidin-3-one]
EC50 [1]: > 20 µM
Emax [1]: 13%
EC50 [2]: 0.794 µM
Emax [2]: 73%

O=C1COc2cc(F)ccc2N1CCCN1CCC(CCOC2=NOCC2)CC1 [Example 7, 4-(3-(4-(2-((4,5-dihydroisoxazol-3-yl)oxy)ethyl)piperidin-1-yl)propyl)-7-fluoro-2H-benzo[b][1,4]oxazin-3(4H)-one]
EC50 [1]: > 20 µM
Emax [1]: 8%
EC50 [2]: 0.251 µM
Emax [2]: 62%

O=C1CCc2ccccc2N1CCCN1[C@@H]2CC[C@H]1CC(CCOC1=NOCC1)C2 (stereo partly drawn) [Example 3, 1-(3-((1R,5S)-3-(2-((4,5-dihydroisoxazol-3-yl)oxy)ethyl)-8-azabicyclo[3.2.1]octan-8-yl)propyl)-3,4-dihydroquinolin-2(1H)-one]
EC50 [1]: > 20 µM
Emax [1]: 53%
EC50 [2]: 0.1 µM
Emax [2]: 37%

O=C1CCc2ccccc2N1CCCN1[C@@H]2CC[C@H]1C[C@@H](OCCOC1=NOCC1)C2 [Example 5, 1-(3-(3-(2-((4,5-dihydroisoxazol-3-yl)oxy)ethoxy)-8-azabicyclo[3.2.1]octan-8-yl)propyl)-3,4-dihydroquinolin-2(1H)-one]
EC50 [1]: > 20 µM
Emax [1]: 19%
EC50 [3]: > 20 µM
Emax [3]: 46%
EC50 [4]: > 20 µM
Emax [4]: 16%
EC50 [2]: 0.00631 µM
Emax [2]: 62%

O=C1CCON1CCCCCC1CCN(CCCN2C(=O)CCc3ccccc32)CC1 [Example 12, 2-(5-(1-(3-(2-oxo-3,4-dihydroquinolin-1(2H)-yl)propyl)piperidin-4-yl)pentyl)isoxazolidin-3-one]
EC50 [1]: > 20 µM
Emax [1]: 5%
EC50 [3]: > 20 µM
Emax [3]: 1%
EC50 [4]: > 20 µM
Emax [4]: 2%
EC50 [2]: 0.02 µM
Emax [2]: 41%

O=C1CCc2ccccc2N1CCCN1C2CCC1CC(CCCOC1=NOCC1)C2 (centres unmarked) [Example 4, 1-(3-(3-(3-((4,5-dihydroisoxazol-3-yl)oxy)propyl)-8-azabicyclo[3.2.1]octan-8-yl)propyl)-3,4-dihydroquinolin-2(1H)-one]
EC50 [1]: > 20 µM
Emax [1]: 11%
EC50 [3]: > 20 µM
Emax [3]: 0%
EC50 [4]: > 20 µM
Emax [4]: 29%
EC50 [2]: 0.00316 µM
Emax [2]: 71%

c1ccc2c(c1)CCCN2CCCN1C2CCC1CC(CCCOC1=NOCC1)C2 (centres unmarked) [Example 9, 3-(3-(8-(3-(3,4-dihydroquinolin-1(2H)-yl)propyl)-8-azabicyclo[3.2.1]octan-3-yl)propoxy)-4,5-dihydroisoxazole]
EC50 [1]: > 20 µM
Emax [1]: 16%
EC50 [3]: > 20 µM
Emax [3]: 21%
EC50 [4]: > 20 µM
Emax [4]: 28%
EC50 [2]: 0.0251 µM
Emax [2]: 40%

O=C1CCc2ccccc2N1CCCN1CCC(CCOC2=NOCC2)CC1 [Example 1, 1-(3-(4-(2-((4,5-dihydroisoxazol-3-yl)oxy)ethyl)piperidin-1-yl)propyl)-3,4-dihydroquinolin-2(1H)-one]
EC50 [1]: > 20 µM
Emax [1]: 19%
EC50 [3]: > 20 µM
Emax [3]: 0%
EC50 [4]: > 20 µM
Emax [4]: 1%
EC50 [2]: 0.0631 µM
Emax [2]: 92%

O=C1CCc2ccccc2N1CCCN1CCC(CCCCOC2=NOCC2)CC1 [Example 2, 1-(3-(4-(4-((4,5-dihydroisoxazol-3-yl)oxy)butyl)piperidin-1-yl)propyl)-3,4-dihydroquinolin-2(1H)-one]
EC50 [1]: > 20 µM
Emax [1]: 10%
EC50 [3]: > 20 µM
Emax [3]: 7%
EC50 [4]: > 20 µM
Emax [4]: 3%
EC50 [2]: 0.00316 µM
Emax [2]: 98%

O=C1CCON1CCCC1C[C@@H]2CC[C@@H](C1)N2CCCN1C(=O)CCc2ccccc21 (stereo partly drawn) [Example 13, 2-(3-((1S,5S)-8-(3-(2-oxo-3,4-dihydroquinolin-1(2H)-yl)propyl)-8-azabicyclo[3.2.1]octan-3-yl)propyl)isoxazolidin-3-one]
EC50 [1]: > 20 µM
Emax [1]: 12%
EC50 [3]: > 20 µM
Emax [3]: 8%
EC50 [4]: > 20 µM
Emax [4]: 9%
EC50 [2]: 0.1 µM
Emax [2]: 62%

O=C1CCc2ccccc2N1CCCN1[C@@H]2CC[C@H]1CN(CCCOC1=NOCC1)C2 [Example 6, 1-(3-((1R,5S)-3-(3-((4,5-dihydroisoxazol-3-yl)oxy)propyl)-3,8-diazabicyclo[3.2.1]octan-8-yl)propyl)-3,4-dihydroquinolin-2(1H)-one]
EC50 [1]: > 20 µM
Emax [1]: 32%
EC50 [3]: > 0.2 µM
Emax [3]: 0%
EC50 [4]: > 0.2 µM
Emax [4]: 6%
EC50 [2]: < 0.000631 µM
Emax [2]: 103%

O=C1CCON1CCCCC1CCN(CCCN2C(=O)CCc3ccccc32)CC1 [Example 11, 2-(4-(1-(3-(2-oxo-3,4-dihydroquinolin-1(2H)-yl)propyl)piperidin-4-yl)butyl)isoxazolidin-3-one]
EC50 [1]: > 20 µM
Emax [1]: 10%
EC50 [3]: > 20 µM
Emax [3]: 7%
EC50 [4]: > 20 µM
Emax [4]: 4%
EC50 [2]: 0.01 µM
Emax [2]: 92%

O=C1COc2cc(F)ccc2N1CCCN1CCC(CCCCOC2=NOCC2)CC1 [Example 8, 4-(3-(4-(4-((4,5-dihydroisoxazol-3-yl)oxy)butyl)piperidin-1-yl)propyl)-7-fluoro-2H-benzo[b][1,4]oxazin-3(4H)-one]
EC50 [1]: 0.0251 µM
Emax [1]: 25%
EC50 [3]: > 20 µM
Emax [3]: 3%
EC50 [4]: > 20 µM
Emax [4]: 4%
EC50 [2]: 0.01 µM
Emax [2]: 102%
